Measurements published in patent US10150737B2, “Compounds for controlling arthropods” (priority 2013, dated 2018).

What was measured:
[1] = logP determination by HPLC on a reversed-phase column (C18); format: physicochemical; settings: for logP^a): HPLC-MS method a); for logP^a) / log P: reversed-phase column (C18); for log P: HPLC-MS, Table I-T3; for logP: HPLC, C18 reversed phase, acetonitrile/water with formic acid, EEC Directive 79/831 Annex V.A8
Ctenocephalides felis [2] = test: Ctenocephalides felis - in vitro contact tests with adult cat fleas; format: in vivo; settings: application rate 5 μg/cm2 (=500 g/ha); after 48 h; fleas dead or moribund
In short: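 Tubes coated with compound in acetone (250 μl of 900 ppm solution gives 5 μg/cm^2 on 44.7 cm^2), solvent evaporated, then 5–10 adult fleas added and kept horizontal at room temperature and ambient humidity. After 48 h, dead or moribund (motionless/uncoordinated) fleas scored as % efficacy.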

Amblyomma hebraeum = test: Amblyomma hebaraeum test (tick nymphs, immersion); format: in vivo; settings: application rate 100 ppm; tick nymphs immersed one minute; after 42 days
Method: Solvent: dimethyl sulphoxide
To produce an appropriate active ingredient formulation, 10 mg of active ingredient are mixed with 0.5 ml of dimethyl sulphoxide, and the concentrate is diluted with water to the desired concentration.
Tick nymphs (Amblyomma hebraeum) are placed into perforated plastic beakers and immersed in the desired concentration for one minute. The ticks are transferred on filter paper into a Petri dish and stored in a climate-controlled cabinet.
After 42 days, the kill in % is determined. 100% means that all of the ticks have been killed; 0% means that none of the ticks have been killed.

Boophilus microplus = Boophilus microplus - injection test; format: in vivo; settings: application rate 20 μg/animal; injection into engorged adult female ticks; after 7 days
In short: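 Active ingredient in DMSO, 1 μl injected into the abdomen of 5 engorged adult female ticks, then held in a climate-controlled room. Efficacy scored after 7 days from laying of fertile eggs, with non-fertile-looking eggs kept about 42 days for larval hatch; 100% means no fertile eggs.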

[3] = test system: Boophilus microplus Parkhurst strain, SP-resistant; test: Boophilus microplus - dip test; format: in vivo; settings: application rate 100 ppm; dip of engorged adult female ticks; after 7 days
In short: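 SP-resistant Parkhurst strain engorged adult female Boophilus microplus (8-10 per tube) dipped in DMSO-based compound dilutions in water, then kept in a climate-controlled room. Efficacy scored after 7 days from fertile egg laying, with larval hatch checked after about 42 days; 100% means no fertile eggs.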

Ctenocephalides felis [4] = test: Ctenocephalides felis - oral test; format: in vivo; settings: application rate 100 ppm in citrated cattle blood; after 2 days
In short: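 Compound in DMSO diluted into citrated cattle blood, fed through a parafilm membrane to about 20 unfed adult cat fleas. Kill in % scored after 2 days (100% = all dead).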

Lucilia cuprina = Lucilia cuprina test; format: in vivo; settings: application rate 100 ppm; L1 larvae; after 2 days
In short: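 About 20 L1 larvae placed on minced horsemeat treated with compound, formulated in DMSO and diluted with water to test concentration. Kill in % scored after 2 days (100% = all larvae dead, 0% = none).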

Musca domestica = Musca domestica test; format: in vivo; settings: application rate 100 ppm; adult houseflies; after 2 days
In short: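 Compound dissolved in DMSO (10 mg per 0.5 ml) and diluted with water to the test concentration. Sponges soaked with sugar solution plus formulation were offered to 10 adult houseflies per vessel. Mortality (% kill, 100% = all dead, 0% = none) scored after 2 days.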

Phaedon cochleariae = Phaedon cochleariae - spray test; format: in vivo; settings: larvae on Chinese cabbage leaf discs, after 7 days
In short: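 Chinese cabbage leaf discs sprayed with compound formulated in acetone/DMF and water containing 1000 ppm emulsifier; once dry, infested with mustard beetle larvae. Efficacy (% larvae killed) scored after 7 days.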

Spodoptera frugiperda = Spodoptera frugiperda - spray test; format: in vivo; settings: caterpillars on maize leaf discs, after 7 days
In short: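 Maize leaf discs sprayed with compound formulated in acetone/DMF and diluted in water containing 1000 ppm alkylaryl polyglycol ether emulsifier, then infested with armyworm caterpillars after drying. Efficacy scored after 7 days as % caterpillars killed (100% all, 0% none).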

Tetranychus urticae = Tetranychus urticae - spray test, OP-resistant; format: in vivo; settings: application rate 100 g/ha; bean leaf discs; after 6 days
In short: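 Compound dissolved in acetone/DMF, diluted with water containing 1000 ppm alkylaryl polyglycol ether emulsifier to test concentrations. Bean leaf discs infested with all stages of spider mites were sprayed; % kill determined after 6 days (100% = all mites dead, 0% = none).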

Myzus persicae = Myzus persicae - spray test; format: in vivo; settings: application rate 100 g/ha; Chinese cabbage leaf discs; after 6 days
In short: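 Chinese cabbage leaf discs carrying all stages of Myzus persicae sprayed with compound in acetone/DMF diluted in water with 1000 ppm emulsifier. Efficacy (% aphids killed) assessed after 6 days.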

Rhipicephalus sanguineus = Rhipicephalus sanguineus - in vitro contact tests with adult brown dog ticks; format: in vivo; settings: application rate 5 μg/cm2; after 48 h; ticks dead or moribund
Method: For the coating of the test tubes, 9 mg of active ingredient are first dissolved in 1 ml of acetone p.a. and then diluted to the desired concentration with acetone p.a. 250 μl of the solution are distributed homogeneously on the inner walls and base of a 25 ml test tube by turning and rocking on an orbital shaker (rocking rotation at 30 rpm for 2 h). With 900 ppm active ingredient solution and internal surface 44.7 cm^2, given homogeneous distribution, an area-based dose of 5 μg/cm^2 is achieved.
After the solvent has evaporated off, the tubes are populated with 5-10 adult dog ticks (Rhipicephalus sanguineus), sealed with a perforated plastic lid and incubated in a horizontal position in the dark at room temperature and ambient humidity. After 48 h, efficacy is determined. To this end, the ticks are knocked to the floor of the tube and incubated on a hotplate at 45-50° C. for not more than 5 min. Ticks which remain motionless on the floor or move in such an uncoordinated manner that they are unable to deliberately avoid the heat by climbing upwards are considered to be dead or moribund.
An efficacy of 100% means that all the ticks were dead or moribund. 0% efficacy means that none of the ticks had been harmed.

logP [1] | SMILES | logP^a) [1] | log P [1] | efficacy (Ctenocephalides felis [2]) [%] | efficacy (kill) (Amblyomma hebraeum) [%] | efficacy (laying of fertile eggs) (Boophilus microplus) [%] | efficacy (laying of fertile eggs) [3] [%] | efficacy (kill) (Ctenocephalides felis [4]) [%] | efficacy (kill) (Lucilia cuprina) [%] | efficacy (kill) (Musca domestica) [%] | efficacy (Phaedon cochleariae; application rate 500 g/ha) [%] | efficacy (Spodoptera frugiperda; application rate 500 g/ha) [%] | efficacy (Tetranychus urticae) [%] | efficacy (Myzus persicae) [%] | efficacy (Spodoptera frugiperda; application rate 100 g/ha) [%] | efficacy (Rhipicephalus sanguineus) [%] | efficacy (Phaedon cochleariae; application rate 100 g/ha) [%]
– | Cc1cc(C(F)(C(F)(F)F)C(F)(F)F)cc(C(F)(F)F)c1-n1cc(-c2cnc(Cl)c(C(=O)N(C)C3(C#N)CC3)c2)cn1 [I-T3-111] | 4.4 | 4.4 | 100 | 80 | 100 | 98 | 100 | 100 | 100 | 100 | 100 | 90 | – | – | – | –
– | Cc1ncc(-c2cnn(-c3c(Cl)cc(C(F)(C(F)(F)F)C(F)(F)F)cc3C(F)(F)F)c2)cc1C(=O)NC1(C#N)CC1 [I-T3-125] | 3.8 | 3.8 | 100 | 100 | 100 | 100 | 100 | 100 | 100 | – | – | 100 | 100 | 100 | – | –
– | Cc1cc(C(F)(C(F)(F)F)C(F)(F)F)cc(I)c1-n1cc(-c2ccc(Cl)c(C(=O)NC3CC3)c2)cn1 [I-T3-175] | – | 4.5 | 100 | – | 100 | 100 | 100 | 100 | 100 | – | – | 100 | 100 | 100 | 100 | 100
– | Cc1cc(C(F)(C(F)(F)F)C(F)(F)F)cc(I)c1-n1cc(-c2ccc(Cl)c(C(=O)NC3(C#N)CC3)c2)cn1 [I-T3-176] | – | 4.4 | 100 | – | 100 | 100 | 100 | 100 | 100 | – | – | 100 | 100 | 100 | 100 | 100
4.9 | Cc1cc(C(F)(C(F)(F)F)C(F)(F)F)cc(C(F)(F)F)c1-c1cc(-c2ccc(Cl)c(C(=O)NC3CC3)c2)on1 [I-T22-5] | – | – | 100 | – | 100 | 100 | 100 | 100 | 100 | – | – | 100 | 100 | 100 | 100 | 100
4.7 | Cc1cc(C(F)(C(F)(F)F)C(F)(F)F)cc(C(F)(F)F)c1-c1cc(-c2ccc(Cl)c(C(=O)NC3(C#N)CC3)c2)on1 [I-T22-7] | – | – | 100 | – | 100 | 100 | 100 | 100 | 100 | – | – | 100 | 100 | 100 | 100 | 100
